In patent EP0351767A2, “Use of potassium channel activators to inhibit myocardial cell necrosis and to maintain the functioning of the heart during myocardial ischemia and/or reperfusion” (E.R. SQUIBB & SONS, INC., priority 1988, dated 1990):
Where two headings read alike, the source gives them in different places.

Tests used:
rat portal vein = experiment: Inhibition of spontaneous mechanical activity (twitch height and frequency) in isolated rat portal vein; conditions: for IC50: Rattus norvegicus
Procedure: (§1) A bicarbonate buffered physiological salt solution (PSS) was used containing, in mM: 118.4 NaCl, 4.7 KCl, 1.2 KH₂PO₄ 1.2 MgSO₄, 2.5 CaCl₂, 25.0 NaHCO₃ and 11.7 glucose. PSS with varying concentrations of KCl was prepared by addition of appropriate amounts of KCl from a 4M KCl stock. Calcium free PSS was prepared by deletion of CaCl₂ and addition of 1.0 mM [ethylenebis(oxyethylenitrilo)]-tetraacetic acid (EGTA). All solutions were aerated with 95% O₂-5% CO₂ such that the pH was 7.4. Experiments were conducted at 37°C.
Stock solutions of test compounds were prepared daily. The compounds were dissolved in water or DMSO as appropriate.
(§2) Normotensive male Wistar Kyoto rats approximately 14 weeks old were sacrificed using CO₂. The thoracic aorta and portal vein were quickly removed and placed into cold PSS. Blood was rinsed from the lumen and adherent connective tissue was carefully removed. Rings approximately 4 mm in width were cut from each aorta. The endothelium was mechanically removed by inserting a wire into the lumen and gently rolling the ring on filter paper moistened with PSS. The aortic rings were mounted on stainless steel tissue wires attached to tissue holders. An intact segment of portal vein extending approximately 2 cm from the liver hilus was mounted longitudinally on tissue holders. The tissues were suspended in individual 20 ml organ chambers and connected to a micrometer for control of tissue length and a Grass FT.03 force transducer. Mechanical responses were recorded on Grass Model 7D polygraphs.
The rat portal vein segments were gradually stretched over a 1 to 2 hour equilibration period to a preload of 0.5 g. When the frequency and height of the spontaneous twitches had stabilized, propranolol (1 µM) was added and cumulative concentration response curves were obtained for the test compounds. A steady state reduction of the twitch height and frequency was reached before the next concentration was added.
Force development by the portal vein segments was determined at the peak of the twitch. The effect of each compound on force was calculated relative to the force in its absence. IC₅₀ values were determined at the concentration where 50% of the maximal inhibition force was attained. In addition, the relative frequency of twitches was determined by counting the number of twitches in a 5 minute period following drug addition and determining the change in rate from basal (absence of test compund). Results were then calculated as % inhibition of twitch frequency. Data are report as mean ± SEM.

[1] = tested on: isolated, buffer perfused rat hearts; experiment: Global ischemia (25 min) and reperfusion (30 min) in isolated, buffer perfused rat hearts (Langendorff)
Procedure: For the determination of the effect of the potassium channel activators pinacidil and BRL 34915 (cromakalim) on post-ischemic necrosis and function, isolated, buffer perfused rat hearts were used. Male Sprague-Dawely rats (450-550 g) were used for all experiments. The rats were anesthetized using 30 mg/kg sodium pentobarbital (i.p.) They were intubated and then treated with i.v. heparin (1000 U/kg). While being mechanically ventilated, their hearts were perfused in situ via retrogade cannulation of the aorta. The hearts were then excised and quickly moved to a Langendorff apparatus where they were perfused with Krebs-Henseleit (1.25 mM CaCl₂) buffer at a constant pressure (80 mmHg). A saline-filled latex balloon attached to a metal cannula was then inserted into the left ventricle and connected to a Statham pressure transducer for measurement of left ventricular systolic and developed (LVDP) pressure. The hearts were allowed to equilibrate for 15 minutes at which time end diastolic pressure (EDP) was adjusted to 5 mm Hg and this was maintained for 5 minutes. Pre-ischemia, pre-drug function (HRXLVDP/1000), heart rate, and coronary blood flow (extracorporeal electromagnetic flow probe, Carolina Medical Electronics, King, N.C.) were then determined.
Once the baseline measurements were made, the hearts were divided into 4 groups (n=4-6 each): 1. Hearts receiving vehicle. 2. Hearts receiving 1, 10 or 100 µM pinacidil. 3. Hearts receiving 1 or 7 µM BRL 34915. 4. Hearts receiving 1, 10 or 100 µM nicroandil. Each heart received its respective treatment in the perfusion buffer for 10 minutes at which time functional and flow parameters were again measured. All hearts were then made globally ischemic by shutting off the perfusate for 25 minutes. Reperfusion was then instituted with the normal nondrug treated buffer. Reperfusion was maintained for 30 minutes at which time flow and functional parameters were again measured. Lactate dehydrogenase (LDH) release into the reperfusion effluent was measured and this is a measure of myocardial cell death or necrosis. The severity of ischemia was determined by the return of function during reperfusion, mitigation of contracture (lower end diastolic pressure) and LDH release.

[2] = tested on: awake dogs with acute myocardial infarction; conditions: cited from earlier work
aorta = experiment: Comparison of potency in aorta (phenylephrine contractions) and portal vein; set-up: species or system rat; conditions: portal vein compared with aorta
Procedure: as §1
as §2, with “The tissues were suspended in individual 20 ml organ chambers and connected to a micrometer for control of tissue length and a Grass FT.03 force transducer.” left out

[3] = tested on: Ischemic-Reperfused Myocardium; conditions: infusion prior to and during a 15-min coronary occlusion; 3-h reperfusion period; cited from earlier work
[4] = inhibition of spontaneous mechanical activity (twitch height), cumulative concentration response curves, propranolol 1 µM present, N=4 (cromakalim, pinacidil N=5), read-out: IC₅₀

Question: For `CC1(C)Oc2ccc(C#N)cc2[C@@H](N2CCCC2=O)[C@@H]1O` (racemic) [Cromakalim, (±)-6-cyano-3,4-dihydro-2,2-dimethyl-trans-4-(2-oxo-1-pyrrolidyl)-2H-benzo[b]-pyran-3-ol], which IC50 (rat portal vein; [4]) is on record?
Answer: 0.12 µM

Question: And the “LDH release and thus necrosis” value ([1]; 7 µM)?
Answer: reduced

Question: What about the “myocardial function during reperfusion” value ([1]; 7 µM) of the same compound?
Answer: improved

Question: Which IC50 (rat portal vein; [4]) does the source give for `CC1(C)Oc2ccc(C#N)cc2[C@@H](N)[C@@H]1O` (relative stereo) [SQ 32,844, (trans)-4-amino-3,4-dihydro-3-hydroxy-2,2-dimethyl-2H-1-benzopyran-6-carbonitrile] here?
Answer: 38 µM

Question: For `CC(NC(=NC#N)Nc1ccncc1)C(C)(C)C` (single isomer, unassigned; (+)) [Pinacidil, (+)-2-cyano-1-(4-pyridyl)-3-(1,2,2-trimethylpropyl)guanidine], which IC50 (rat portal vein; [4]) is on record?
Answer: 0.15 µM

Question: And the post-ischemic cardiac function ([1]; 10 µM, 30 min reperfusion)?
Answer: significantly improved

Question: And the “reperfusion end diastolic pressure (EDP) (contracture)” value ([1]; 10 µM, 30 min reperfusion)?
Answer: reduced

Question: And the “toxic effects (before ischemia reduction in function)” value ([1]; 100 µM)?
Answer: a tendency for toxic effects

Question: What about the anti-ischemic activity ([1]; 1 and 100 µM in perfusion buffer for 10 min before ischemia) of the same compound?
Answer: did not show any marked anti-ischemic activity

Question: What about the “necrosis as measured by lactate dehydrogenase (LDH) release” value ([1]; at the doses used (1, 10 or 100 µM)) of the same compound?
Answer: did not significantly reduce necrosis

Question: And the “blood flow to ischemic myocardium” value [2]?
Answer: no effect

Question: What about the infarct size [2] of the same compound?
Answer: no effect

Question: Which IC50 (rat portal vein; [4]) does the source give for `Nc1nc2c(nc(Br)n2[C@@H]2O[C@@H]3COP(=O)(O)O[C@H]3[C@H]2O)c(=O)[nH]1` [8-Bromo cyclic GMP] here?
Answer: 43 µM

Question: What about the twitch frequency (rat portal vein; frequency of spontaneous contractions with increasing concentration) of the same compound?
Answer: reduced twitch frequency

Question: Which IC50 (rat portal vein; values restated in text, read-out: IC₅₀ (50% of the maximum inhibition) in the inhibition of spontaneous mechanical activity in rat portal vein) does the source give for `O=C(NCCO[N+](=O)[O-])c1cccnc1` [Nicorandil, N-(2-hydroxyethyl)nicotinamide nitrate ester] here?
Answer: 5.1 µM

Question: What about the IC50 (rat portal vein; [4]) of the same compound?
Answer: 5.1 µM

Question: And the “potency in the aorta and portal vein” value (aorta)?
Answer: reduced potency

Question: And the “effectiveness (anti-ischemic)” value ([1]; any dose used (1, 10 or 100 µM))?
Answer: not showed to be effective

Question: And the “recovery of mycocardial segment function (%SS, dL/dt)” value [3]?
Answer: significantly improved recovery

Question: Which “recovery of mycocardial segment function (%SS, dL/dt)” value [3] does the source give for `O=C(O)c1cccnc1` [nicotinic acid] here?
Answer: significantly improved recovery
